From ChEMBL document CHEMBL1201862, “PubChem BioAssay data set” (2004)
Values belong to the compound of their own block, whether it stands above or below them. Active and inactive are the calls of the source.

Legend:
[1] = inhibitors of Trypanosoma cruzi host-cell infection, confirmation, beta-gal luminescence, NIH3T3 host cells (AID 2630); format: functional, cell-based; conditions: Mus musculus
[2] = test system: Trypanosoma cruzi; experiment: growth inhibition of intracellular Trypanosoma cruzi, dose response, cell-based, plate reader, dry powder, set 3 (AID 493197); format: functional
[3] = biological target: T1, Cannabinoid receptor 1 (Homo sapiens, UniProt P21554); experiment: SAR analysis of agonists of the Cannabinoid Receptor 1 using an Image-Based Assay - Set 2. [Related pubchem assays (depositor defined):AID2013, AID2026]; format: functional
[4] = biological target: T2, Cannabinoid receptor 2 (Homo sapiens, UniProt P34972); experiment: SAR analysis of agonists of the Cannabinoid Receptor 2 using an Image-Based Assay. [Related pubchem assays (depositor defined):AID2013, AID2026]; format: functional
[5] = biological target: T3, G-protein coupled receptor 35 (Homo sapiens, UniProt Q9HC97); experiment: SAR analysis of Agonists of the GPR35 Receptor using an Image-Based Assay - Set 2. [Related pubchem assays (depositor defined):AID2013, AID2026]; format: functional
[6] = biological target: T3, G-protein coupled receptor 35; experiment: SAR analysis of Antagonists of the GPR35 Receptor using an Image-Based Assay - Set 3. [Related pubchem assays (depositor defined):AID2013, AID2026]; format: functional
[7] = biological target: G-protein coupled receptor 55 (Homo sapiens, UniProt Q9Y2T6); experiment: GPR55 antagonists blocking LPI-driven arrestin recruitment, primary screen, imaging, U2OS, beta-arrestin-GFP, LPI agonist (AID 2013); format: functional;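 also: antagonist potency measured as reduced agonist-driven arrestin aggregation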
[8] = biological target: T2, Cannabinoid receptor 2; experiment: SAR analysis of antagonists of the Cannabinoid Receptor 2 using an Image-Based Assay. [Related pubchem assays (depositor defined):AID2013, AID2026]; format: functional
[9] = biological target: T1, Cannabinoid receptor 1; experiment: SAR analysis of antagonists of the Cannabinoid Receptor 1 using an Image-Based Assay - Set 2. [Related pubchem assays (depositor defined):AID2013, AID2026]; format: functional
[10] = biological target: Voltage-dependent T-type calcium channel subunit alpha-1H (Homo sapiens, UniProt O95180); format: functional;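 also: channel activity triggered by adding a high calcium stimulation buffer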
[11] = biological target: T4, Kappa-type opioid receptor (Homo sapiens, UniProt P41145); format: functional
[12] = biological target: T4, Kappa-type opioid receptor; format: functional; remark: listed apart in the source
[13] = biological target: Beta-galactosidase (Escherichia coli, UniProt Q8VNN2); format: functional
[14] = test system: Vero; experiment: cytotoxicity of synthesized analogs in Vero 76, SAR follow-up, cytotoxicity control for West Nile virus antiviral project, Vero 76 cells (AID 2414); format: functional; conditions: Chlorocebus sabaeus
[15] = test system: Vero; experiment: West Nile virus antiviral activity, cell-based, CPE readout (AID 1621); format: functional; conditions: Chlorocebus sabaeus
[16] = test system: Vero; experiment: Vero E6 cell cytotoxicity, SAR follow-up, cytotoxicity control for West Nile virus antiviral project, synthesized analogs (AID 2244); format: functional; conditions: Chlorocebus sabaeus
[17] = test system: Vero; experiment: cytotoxicity of synthesized analogs in Vero cells, SAR follow-up, cytotoxicity control for West Nile virus antiviral project, cell-based, set II (AID 2402); format: functional; conditions: Chlorocebus sabaeus
[18] = test system: Vero; experiment: West Nile virus CPE inhibition, SAR follow-up, cell-based, synthesized analogs (AID 2238); format: functional; conditions: Chlorocebus sabaeus
[19] = biological target: T5, Runt-related transcription factor 1/Core-binding factor subunit beta (Homo sapiens, UniProt Q01196+Q13951); experiment: Confirmation of compounds inhibiting the binding between the RUNX1 Runt domain and CBFb-SMMHC via a time resolved fluorescence resonance energy transfer (TR-FRET) assay. [Related pubchem assays (depositor defined):AID1434, AID1438, AID1496, AID1560, AID1645]; format: protein assay
[20] = biological target: T5, Runt-related transcription factor 1/Core-binding factor subunit beta; experiment: Confirmation of compounds inhibiting the binding between the RUNX1 Runt domain and CBFb-SMMHC via a fluorescence resonance energy transfer (FRET) assay. [Related pubchem assays (depositor defined):AID1434, AID1438, AID1496, AID1550, AID1645]; format: protein assay
[21] = test system: INS1; experiment: beta cell apoptosis inhibitors, cytokine rescue, dose response, luminescence, retest (AID 449756); format: functional, cell-based; conditions: Rattus norvegicus;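 also: cell death triggered by IL-1 beta plus TNF-alpha plus IFN-gamma mixture; protective hits raise ATP signal compared with cytokine alone wells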
[22] = biological target: T5, Runt-related transcription factor 1/Core-binding factor subunit beta; experiment: inhibitors of RUNX1 Runt–CBFb-SMMHC binding, biochemical, TR-FRET (AID 1438); format: protein assay
[23] = biological target: T5, Runt-related transcription factor 1/Core-binding factor subunit beta; experiment: inhibitors of RUNX1 Runt–CBFb-SMMHC binding, primary screen, biochemical, FRET, Cerulean-Runt, Venus-CBFb-SMMHC, uHTS (AID 1434); format: protein assay;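 also: partner is the CBFb-SMMHC leukemia fusion protein rather than wild-type CBFb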
[24] = test system: Vero; experiment: Vero cell cytotoxicity, cytotoxicity control for flavivirus capping enzyme inhibitors (AID 588742); format: functional; conditions: Chlorocebus sabaeus
[25] = mammalian cell cytotoxicity, dose response, cytotoxicity control, plate reader, cherry-pick samples (AID 504397); format: functional, cell-based

T5 sequence (Q01196 whole entry, the tested form may be a part): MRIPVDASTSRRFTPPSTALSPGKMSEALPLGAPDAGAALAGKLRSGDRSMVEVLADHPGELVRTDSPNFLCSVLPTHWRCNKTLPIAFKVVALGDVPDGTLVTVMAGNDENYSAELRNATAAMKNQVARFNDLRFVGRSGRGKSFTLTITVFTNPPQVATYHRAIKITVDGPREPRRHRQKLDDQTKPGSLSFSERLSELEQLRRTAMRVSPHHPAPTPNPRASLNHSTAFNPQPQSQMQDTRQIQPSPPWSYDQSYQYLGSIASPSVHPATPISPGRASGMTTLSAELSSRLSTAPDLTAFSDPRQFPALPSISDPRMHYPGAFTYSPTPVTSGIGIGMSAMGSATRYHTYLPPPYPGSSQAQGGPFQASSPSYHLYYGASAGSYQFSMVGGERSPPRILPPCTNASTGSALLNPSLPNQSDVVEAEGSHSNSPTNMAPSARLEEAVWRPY
T5 sequence (Q13951 whole entry, the tested form may be a part): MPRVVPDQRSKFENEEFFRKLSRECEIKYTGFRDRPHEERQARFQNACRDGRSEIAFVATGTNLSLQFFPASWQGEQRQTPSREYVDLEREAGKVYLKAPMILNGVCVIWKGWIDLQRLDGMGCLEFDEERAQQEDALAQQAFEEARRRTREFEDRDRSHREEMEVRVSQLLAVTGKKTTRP
T1 sequence (P21554 whole entry): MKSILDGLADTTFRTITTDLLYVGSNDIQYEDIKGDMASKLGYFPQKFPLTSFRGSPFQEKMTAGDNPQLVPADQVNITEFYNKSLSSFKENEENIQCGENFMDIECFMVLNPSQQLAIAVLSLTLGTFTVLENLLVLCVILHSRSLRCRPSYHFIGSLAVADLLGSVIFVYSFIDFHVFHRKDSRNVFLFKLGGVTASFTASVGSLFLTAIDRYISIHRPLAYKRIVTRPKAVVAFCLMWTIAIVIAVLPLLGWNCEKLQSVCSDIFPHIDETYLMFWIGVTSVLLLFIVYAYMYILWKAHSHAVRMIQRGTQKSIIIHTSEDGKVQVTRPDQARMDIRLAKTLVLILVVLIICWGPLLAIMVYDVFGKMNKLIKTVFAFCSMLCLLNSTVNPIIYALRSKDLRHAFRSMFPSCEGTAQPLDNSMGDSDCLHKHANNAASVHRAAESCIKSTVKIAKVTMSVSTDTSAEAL
T4 sequence (P41145 whole entry): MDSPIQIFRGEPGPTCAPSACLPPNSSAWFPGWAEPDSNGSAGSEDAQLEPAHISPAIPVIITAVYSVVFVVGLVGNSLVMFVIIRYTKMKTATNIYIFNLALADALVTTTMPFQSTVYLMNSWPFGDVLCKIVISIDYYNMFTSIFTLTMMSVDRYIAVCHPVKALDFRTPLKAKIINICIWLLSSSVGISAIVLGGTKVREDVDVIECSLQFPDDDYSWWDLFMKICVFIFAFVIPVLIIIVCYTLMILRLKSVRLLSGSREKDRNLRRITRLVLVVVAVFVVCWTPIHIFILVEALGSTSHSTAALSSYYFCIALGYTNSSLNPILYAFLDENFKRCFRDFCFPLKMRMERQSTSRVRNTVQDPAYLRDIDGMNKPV
T2 sequence (P34972 whole entry): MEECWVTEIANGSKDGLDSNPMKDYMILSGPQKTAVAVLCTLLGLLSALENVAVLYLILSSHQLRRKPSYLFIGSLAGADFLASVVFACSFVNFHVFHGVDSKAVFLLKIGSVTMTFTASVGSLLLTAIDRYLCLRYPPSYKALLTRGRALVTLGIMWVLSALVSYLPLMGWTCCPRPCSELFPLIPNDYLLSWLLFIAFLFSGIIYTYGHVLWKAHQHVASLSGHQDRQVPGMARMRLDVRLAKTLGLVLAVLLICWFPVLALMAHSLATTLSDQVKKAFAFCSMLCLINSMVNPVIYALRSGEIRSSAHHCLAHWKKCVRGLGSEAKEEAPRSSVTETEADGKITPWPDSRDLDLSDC
T3 sequence (Q9HC97 whole entry): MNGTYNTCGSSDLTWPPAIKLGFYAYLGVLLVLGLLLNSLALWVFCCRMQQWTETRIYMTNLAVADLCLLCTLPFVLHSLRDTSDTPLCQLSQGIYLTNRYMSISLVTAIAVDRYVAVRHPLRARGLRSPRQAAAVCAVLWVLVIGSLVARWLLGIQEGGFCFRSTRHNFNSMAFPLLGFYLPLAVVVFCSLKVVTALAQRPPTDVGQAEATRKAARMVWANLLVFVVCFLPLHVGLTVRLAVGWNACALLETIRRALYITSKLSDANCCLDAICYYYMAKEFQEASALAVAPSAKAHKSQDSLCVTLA
Chain of Voltage-dependent T-type calcium channel subunit alpha-1H (O95180 whole entry): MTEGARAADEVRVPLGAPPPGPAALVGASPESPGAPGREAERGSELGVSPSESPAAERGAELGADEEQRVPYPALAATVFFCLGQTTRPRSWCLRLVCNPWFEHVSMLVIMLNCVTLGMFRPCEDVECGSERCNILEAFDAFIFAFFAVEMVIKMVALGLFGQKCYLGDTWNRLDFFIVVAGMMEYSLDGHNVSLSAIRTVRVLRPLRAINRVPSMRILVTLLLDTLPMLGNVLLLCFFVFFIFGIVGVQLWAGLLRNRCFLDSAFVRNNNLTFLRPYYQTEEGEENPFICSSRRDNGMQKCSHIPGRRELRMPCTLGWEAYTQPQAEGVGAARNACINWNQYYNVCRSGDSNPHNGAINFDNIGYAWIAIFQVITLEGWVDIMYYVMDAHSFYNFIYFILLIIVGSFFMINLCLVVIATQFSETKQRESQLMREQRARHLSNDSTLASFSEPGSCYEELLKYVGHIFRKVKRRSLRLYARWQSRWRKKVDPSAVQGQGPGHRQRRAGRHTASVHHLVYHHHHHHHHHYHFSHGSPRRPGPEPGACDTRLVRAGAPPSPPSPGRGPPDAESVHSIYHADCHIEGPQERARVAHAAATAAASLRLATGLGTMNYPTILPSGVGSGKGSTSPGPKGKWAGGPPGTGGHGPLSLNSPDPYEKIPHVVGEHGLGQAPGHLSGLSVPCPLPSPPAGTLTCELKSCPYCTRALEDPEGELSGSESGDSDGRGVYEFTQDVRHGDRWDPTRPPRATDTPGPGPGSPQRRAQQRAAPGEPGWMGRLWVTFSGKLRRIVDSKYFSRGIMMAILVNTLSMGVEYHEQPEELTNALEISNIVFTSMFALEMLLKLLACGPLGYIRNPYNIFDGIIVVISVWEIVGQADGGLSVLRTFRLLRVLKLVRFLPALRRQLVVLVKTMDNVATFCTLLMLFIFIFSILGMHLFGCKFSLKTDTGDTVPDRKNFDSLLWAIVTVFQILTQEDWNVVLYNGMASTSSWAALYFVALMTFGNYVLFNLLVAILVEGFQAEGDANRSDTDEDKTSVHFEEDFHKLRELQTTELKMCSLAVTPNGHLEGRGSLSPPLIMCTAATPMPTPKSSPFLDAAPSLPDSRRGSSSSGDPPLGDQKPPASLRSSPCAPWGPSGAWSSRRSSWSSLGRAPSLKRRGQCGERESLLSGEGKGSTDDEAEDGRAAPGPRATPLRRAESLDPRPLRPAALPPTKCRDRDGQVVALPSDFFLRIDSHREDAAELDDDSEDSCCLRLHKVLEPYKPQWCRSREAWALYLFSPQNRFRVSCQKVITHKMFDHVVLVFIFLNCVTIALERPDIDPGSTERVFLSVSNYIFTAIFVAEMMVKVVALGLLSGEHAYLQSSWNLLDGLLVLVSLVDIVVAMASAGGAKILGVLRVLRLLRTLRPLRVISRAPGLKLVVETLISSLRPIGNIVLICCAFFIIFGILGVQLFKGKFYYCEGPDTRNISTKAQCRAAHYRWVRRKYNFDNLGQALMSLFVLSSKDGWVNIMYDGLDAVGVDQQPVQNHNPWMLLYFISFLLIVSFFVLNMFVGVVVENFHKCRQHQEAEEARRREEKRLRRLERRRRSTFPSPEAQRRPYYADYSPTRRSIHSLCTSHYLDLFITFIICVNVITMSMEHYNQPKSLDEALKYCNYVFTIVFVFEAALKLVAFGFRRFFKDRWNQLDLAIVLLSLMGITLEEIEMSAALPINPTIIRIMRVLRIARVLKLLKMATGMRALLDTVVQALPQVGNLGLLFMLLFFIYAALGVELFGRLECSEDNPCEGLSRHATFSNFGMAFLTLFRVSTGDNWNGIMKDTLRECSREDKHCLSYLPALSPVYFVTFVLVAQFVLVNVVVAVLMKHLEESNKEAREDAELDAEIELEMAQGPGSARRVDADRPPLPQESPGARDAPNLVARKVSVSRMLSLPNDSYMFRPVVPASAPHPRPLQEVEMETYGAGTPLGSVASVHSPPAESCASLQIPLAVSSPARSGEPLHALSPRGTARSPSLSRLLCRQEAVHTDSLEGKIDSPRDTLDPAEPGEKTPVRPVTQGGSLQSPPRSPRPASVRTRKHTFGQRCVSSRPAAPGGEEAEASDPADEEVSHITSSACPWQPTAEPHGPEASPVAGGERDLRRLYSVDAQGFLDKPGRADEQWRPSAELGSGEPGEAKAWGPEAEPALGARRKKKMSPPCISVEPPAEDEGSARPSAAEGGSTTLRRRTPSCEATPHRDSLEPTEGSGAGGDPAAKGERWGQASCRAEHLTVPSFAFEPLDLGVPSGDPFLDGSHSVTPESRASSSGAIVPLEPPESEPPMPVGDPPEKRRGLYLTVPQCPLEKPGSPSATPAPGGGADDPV
Chain of G-protein coupled receptor 55 (Q9Y2T6 whole entry): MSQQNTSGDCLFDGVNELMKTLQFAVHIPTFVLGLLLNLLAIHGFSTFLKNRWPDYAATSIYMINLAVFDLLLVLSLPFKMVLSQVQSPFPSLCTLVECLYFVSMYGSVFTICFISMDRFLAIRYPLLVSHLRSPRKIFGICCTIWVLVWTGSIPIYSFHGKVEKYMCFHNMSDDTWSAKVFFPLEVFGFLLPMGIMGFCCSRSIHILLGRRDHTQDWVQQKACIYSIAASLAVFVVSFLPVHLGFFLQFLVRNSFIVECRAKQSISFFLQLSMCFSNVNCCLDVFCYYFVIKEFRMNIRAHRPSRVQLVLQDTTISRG

Compound: CCN(CC)C(=O)C1CCCN(Cc2cccc(Cl)c2)C1 (stereo not given)
- EC50 [1]: 1.33 µM (active)
- AC50 [2]: 9.91 µM (active)

- EC50 [3]: > 32 µM (inactive)
- EC50 [4]: > 32 µM (inactive)
- EC50 [5]: > 32 µM (inactive)
- IC50 [6]: > 32 µM (inactive)
- IC50 [7]: 4.28 µM (active)
- IC50 [8]: > 32 µM (inactive)
- IC50 [9]: 17.7 µM (inactive)
Compound: Cc1ccc(C2(C(=O)N3CCC(n4nc(-c5ccccc5)oc4=O)CC3)CC2)cc1

- EC50 [10]: 4.73 µM (active)
- IC50 [11]: > 32 µM
- IC50 [12]: > 31.5 µM (inactive)
- EC50 [13]: > 31.5 µM (inactive)
Compound: O=C(C1CCCN(S(=O)(=O)Cc2ccccc2)C1)N1CCC(Cc2ccccc2)CC1 (stereo not given)

Compound: O=C(CSc1nc2ccccc2c(=O)n1-c1ccc(F)cc1)Nc1ccc2c(c1)CCC2
- CC50 [14]: > 133 µM (active)
- IC50 [15]: 20.6 µM (active)
- CC50 [16]: > 80 µM (active)
- CC50 [17]: > 200 µM (active)
- IC50 [18]: 24.5 µM (active)

Compound: O=C(c1cccnc1)N(c1cc2sc(=O)oc2c2ccccc12)S(=O)(=O)c1ccccc1
- IC50 [19]: > 100 µM (inactive)
- IC50 [20]: > 100 µM (inactive)
- AC50 [21]: 6.65 µM (active)
- IC50 [22]: > 100 µM (inactive)
- IC50 [23]: > 100 µM (inactive)
- CC50 [24]: > 40 µM (active)

Compound: C=CCn1c(SCc2ccc(C#N)cc2)nnc1-c1ccc(C)cc1
- AC50 [25]: 98.3 µM (active)
